# From patent US20230255970A1, “COMPOSITIONS AND METHODS FOR TREATING PROLIFERATIVE DISEASES” (The Broad Institute, Inc., priority 2020, published 2023)
# Experiments:
# Yap1 = Yap1 protein levels in KP230 cells (western blot, immunofluorescence); assay type: cell-based, mouse; conditions: 72 hours
# Source text: (§1) YAP1 cell culture and treatments: Eisinger lab: Murine KP230 cells, a Yap1-dependent cancer cell line, were derived from a tumor from the KP mouse model (Kras^G12/D; Trp53^f/fl), as described in Eisinger-Mathason, T. S. K. et al., Proc. Natl. Acad. Sci. U.S.A 112 (2015): E3402-11, which is hereby incorporated by reference in its entirety. STS-109 UPS cells were derived from a human UPS tumor and validated by Rebecca Gladdy, MD (Sinai Health System, Toronto, Ontario, Canada). TC32 cells were a gift from Patrick Grohar, MD, PhD (Children's Hospital of Philadelphia). HT-1080, HCT-116, and HEK293T cells were purchased from ATCC. KP230, HT-1080, and HEK-293T cells were grown in DMEM with 10% FBS, 1% L-glutamine, and 1% penicillin/streptomycin (P/S). STS-109 cells were cultured in DMEM with 20% FBS, 1% L-glutamine, and 1% P/S. TC32 cells were grown in RPMI with 10% FBS, 1% L-glutamine, and 1% P/S. HCT-116 cells were cultured in McCoy's 5A medium with 10% FBS and 1% P/S. All cells were confirmed to be negative for mycoplasma contamination and were maintained in an incubator at 37C with 5% CO2. […]
# YAP1-related Western blotting: The cells were lysed in RIPA buffer (Pierce) supplemented with Halt Protease inhibitor cocktail and Halt Phosphatase inhibitor cocktail. […] The protein concentration of each sample was quantified using the Pierce BCA protein assay (Thermo Fisher). […]
# KP230 cells = test: RNA sequencing and gene set enrichment analysis in KP230 cells; assay type: cell-based, mouse; conditions: 10 μM daily for 72 hours
# Source text: as §1, with “CO2. For experimental purposes, cells were cultured for up to 20 passages before being discarded, and were grown to approximately 50% confluence to circumvent the effects of high cell density on Yap1 expression and activity.” for “CO2.”
smiles,measurement,setting,value
"c1ccc(CNc2ncnc3ccccc23)cc1 [BRD-K43796186, N-benzylquinazolin-4-amine]",Yap1 protein levels,Yap1,reduced
same,pathways down-regulated (GSEA),KP230 cells,"epithelial-mesenchymal transition, angiogenesis, and glycolysis"
same,pathways up-regulated (GSEA),KP230 cells,interferon alpha and gamma responses
